“And” between values parts separate entries of the source, which are not always exact repeats. Equal entries are not always repeated. Square brackets hold non-standard residues; d marks the D form. Peptide text beside a SMILES is read from it.
What was measured:
[1] = test system: acute CYP-induced cystitis in female Sprague-Dawley rats; assay: Cyclophosphamide-induced acute cystitis, intravenous treatment, visceral pain; assay type: in vivo, rat; details: 2 mg/kg, i.v.; 24 h after CYP
Method: The aim of the present study was to evaluate the effects of intravenous treatment with XG-104 (2 mg/kg) on urinary bladder pain in acute CYP-induced cystitis in female Sprague-Dawley rats. This preclinical model is well-used to test therapeutic approaches for the treatment of interstitial cystitis/painful bladder syndrome (IC/PBS).
Adult female Sprague-Dawley rats (Janvier Labs, Le Genest Saint Isle, France), weighing 215±20 g at the beginning of the experiments, were used. Animals were acclimatized to the laboratory conditions for at least 3 days before the start of any experiments. The animals were allocated to the following four experimental groups (n=10 animals per group):
To induce acute cystitis, a single i.p. injection of CYP at a dose of 150 mg/kg in a final volume of 5 mL/kg was performed. Control rats received physiological saline under the same experimental conditions as CYP (final volume of 5 mL/kg, i.p.).
On the day of each experiment, weight of rats was recorded.
Assessment of referred visceral pain using von Frey filaments: Standardized conditions including fixed time-of-day (a.m. to minimize the potential circadian variations in the behaviours responses) and single-experimenter testing of all animals were applied to minimize variability behavior-based pain testing. Visceral pain including allodynia and hyperalgesia was evaluated by applying to the lower abdomen, close to the urinary bladder, a set of 8 calibrated von Frey filaments of increasing forces (1, 2, 4, 6, 8, 10, 26 and 60 g) with an interstimulus interval of 5 seconds. Prior testing, the abdominal area designed for mechanical stimulation of each animal was shaved. Animals were then placed on a raised wire mesh floor under individual transparent Plexiglas box and acclimatized for at least 30 minutes before starting the von Frey test. Filaments were then applied 1-2 seconds through the mesh floor with enough strength to cause the filament to slightly bend. Each filament was tested 3 times. Care was taken to stimulate different areas within the lower abdominal region in the vicinity of the urinary bladder to avoid desensitization.
The study design differs from that of Example 24 (cf. FIG. 50 A) only in the route of administration (intravenously instead of intravesically) and the doses as specified above. Birefly, acute cystitis was induced by CYP injection (i.p.) at Do (as described above). […]

[2] = test system: rat model of kidney bilateral ischemia reperfusion; assay: Kidney bilateral ischemia reperfusion, tubular histological scores, Sprague-Dawley rats; assay type: in vivo
Method: Male Sprague-Dawley rats weighing 200-250 g at delivery were used (Charles River Laboratories, L'Arbresle, France). Animals were delivered to the laboratory at least 5 days before the experiments during which time they were acclimatized to laboratory conditions. This study included 3 groups of 11-12 rats each, as follow:
The protocol of warm renal ischemia was similar to that previously described (Pechman K R et al., 2009). Briefly, under general anesthesia (pentobarbital; 60 mg/kg, i.p. and atropine; 1 mg/kg, i.p.), both renal pedicles were isolated and clamped for 40 minutes using atraumatic clamps. After this time, clamps were released to start reperfusion. Animals were maintained at 37° C. using a thermo-regulated system (TCAT-2LV Controller, Physitemp Instruments, Clifton, N.J., USA) during the surgery. All the animals were sacrificed 24 hours after the release of both vascular clamps (reperfusion). Sham-operated animals underwent the same surgical procedure without clamping of the kidney vessels.
XG-104 or vehicle (0.9% NaCl) were administered into the tail vein (i.v.) at the dose of 2 mg/kg twenty minutes after the release of the second vascular clamp. Intravenous administrations into the tail vein were performed using the volume of 1 mL/kg.
After sacrifice, kidneys were removed, cleaned from all connective tissue and capsule and weighted on an electronic balance (VWR, France). One kidney was transferred in formalin solution 10% (Sigma Aldrich, France) for at least 24 h and then transferred in ethanol 70% for further histological analysis performed by Histalim (Montpellier, France). Right and left kidneys were randomly chosen. Kidney samples were fixed in 10% formalin during 72 hours, transferred into 70% ethanol, then embedded in paraffin blocks by Histalim (Montpellier, France). One longitudinal section (3 to 5 µm) was made per block. Kidney sections of paraffin embedded tissue were stained by hematoxylin and eosin (H&E). All the slides were digitalized at ×20 magnitude using Nanozoomer 2.0 HT from Hamamatsu (Hamamatsu, Japan). Each tissue section was examined histologically in a blinded manner to determine if tubular changes were present. The severity of each finding was then graded as follows:
Tubular damage score consisted of either degeneration/necrosis, tubular epithelial vacuolation, regeneration (basophil tubules), and tubular cast: […]

[3] = 2 mg/kg i.v. after reperfusion, 24 hours
[4] = 2 mg/kg i.v. after reperfusion, 24 hours, listed as XG-104

`CC(C)C[C@H](NC(=O)[C@H](CC(N)=O)NC(=O)[C@H](CC(C)C)NC(=O)[C@@H](NC(=O)[C@@H](C)NC(=O)[C@@H]1CCCN1C(=O)[C@H](CCCNC(=N)N)NC(=O)[C@@H](CCCCN)NC(=O)[C@@H]1CCCN1C(=O)[C@H](CCCNC(=N)N)NC(=O)[C@@H](CCCNC(=N)N)NC(=O)[C@H](CCCNC(=N)N)NC(=O)[C@H](CCCNC(=N)N)NC(=O)[C@H](CCC(N)=O)NC(=O)[C@@H](CCCNC(=N)N)NC(=O)[C@H](CCCNC(=N)N)NC(=O)[C@H](CCCCN)NC(=O)[C@H](CCCCN)NC(=O)[C@H](N)CCCNC(=N)N)[C@@H](C)O)C(=O)N[C@H](Cc1ccccc1)C(N)=O` [SEQ ID NO: 172, rKKRrQRRrRPkRPaTLNLf] (H-[dR]KKR[dR]QRR[dR]RP[dK]RP[dA]TLNL[dF]-NH2; N-terminus assumed) was tested, and the “AUC 1-8 g (allodynia) vs vehicle” value [1] was “significantly decreased”, the “AUC 8-60 g (hyperalgesia) vs vehicle” value [1] was “significantly reduced” and the “nociceptive scores vs vehicle” value [1] was “significantly decreased”. For the same compound, the “nociceptive threshold vs vehicle” value [1] was “significantly increased”, the “animals with degeneration/necrosis score of 1” value [2, 3] was 1/11 and the “total tubular score (mean)” value [2, 3] was 6.00±1.26. The “animals with degeneration/necrosis score of 4” value [2, 4] was 1/12 and 1/11, the “mean basophilic tubule score” value [2, 4] was 1.33±0.65 and 1.73±0.47 and the “mean tubular epithelial degeneration/necrosis score” value [2, 4] was 2.67±0.65 and 2.18±0.75. For the same compound, the tubular damages ([2]; 2 mg/kg i.v., vs IR/Vehicle) was “significant beneficial effects on tubular damages”.
